Reference: paper PMC8145107 (Pharmaceutics, 2021)

Columns and labels:
[1] = system: CHO-K1: Chinese hamster ovary cell line; assay: Cytotoxicity in normal mammalian cells (CHO-K1); format: cell-based; conditions: Cricetulus griseus; CHO-K1, 24 h, 0.01-100 μM; read-out: IC50 of compounds in various normal mammalian cells
[2] = Liver microsomal phase I stability assay (mouse); format: in vitro ADME; conditions: mouse liver microsomes
[3] = system: NCI-H460 cells; assay: Cell death by PI staining / flow cytometry, NCI-H460; format: cell-based, human; conditions: H460, PI staining, CompuSyn
Method: (§1) Cells were plated in 6-well culture plates at a density of 1 × 10^5 cells/well. Compounds were applied to the cells immediately after seeding. When cells were harvested, cells were washed once with 1× phosphate-buffered saline (PBS), dissociated using Trypsin-EDTA, and centrifuged at 13,000 rpm for 3 min at 4 °C. Next, 1 mL of 1× PBS was added to wash the pellet again. Finally, 1 mL of 1× PBS and 1 μg/mL of propidium iodide (PI) were added to each polystyrene round-bottom tube. Flow cytometric analysis was performed using a FACS flow cytometer (BD Bioscience). To measure cell death, 10^4 cells were counted, and PI-stained cells were analyzed. FACS analysis in accordance with the manufacturer’s instruction. […]
(§2) Table S1. CI values of NSCLC cell lines.
(§3) Cell line Combination drug NA 10 µM NA 20 µM
(§4) CI values were calculated from the data of percent inhibition of cell death by PI staining. Each CI
(§5) value was analyzed by CompuSyn software. […]

[4] = system: NCI-H1975 cells; assay: MTT viability assay, NCI-H1975; format: cell-based; conditions: Homo sapiens, 24 h
Method: (§6) The human NSCLC cell lines of NCI-H460, A549, HCC827, PC9, NCI-H1650, and NCI-H1975 were obtained from the American Type Culture Collection (Rockville, MD, USA). Cells were cultured in RPMI 1640 medium containing 10% FBS, 2 mmol/L L-glutamine, and 100 units/mL of penicillin and streptomycin and maintained at 37 °C in a humidified incubator containing 5% CO2.
(§7) Cell viability against gefitinib-, cisplatin-, and NA49-induced toxicity was determined using an MTT (Amersham Pharmacia Biotech) assay in 96-well plates. […] Next, cells were incubated with 100 µL of 5 mg/mL 3-(4,5-dimethylthiazol-2-yl)-2,5-diphenyltetrazolium bromide (Sigma Aldrich, M5655) for 2 h. After the MTT mixture was removed, 100 µL of DMSO was added to each well, and absorbance at 540 nm was measured using an ELISA plate reader (TECAN, Twinfinite PRO).

[5] = system: A549 cells; assay: Cell death by PI staining / flow cytometry, A549; format: cell-based, human; conditions: PI staining, CompuSyn
Method: as §1, §2, §3, §4, §5

[6] = system: NCI-H460 cells; assay: MTT viability assay, NCI-H460; format: cell-based, human; conditions: Homo sapiens, 24 h
Method: as §6, §7

[7] = system: NCI-H1650 cells; assay: MTT viability assay, NCI-H1650; format: cell-based; conditions: Homo sapiens, 24 h
Method: as §6, §7

[8] = system: PC9 cells; assay: Cell death by PI staining / flow cytometry, PC9; format: cell-based, human; conditions: NA 10 µM + gefitinib 0.01 µM, CompuSyn
Method: as §1, §2, §3, §4, §5

[9] = system: HCC827 cells; assay: MTT viability assay, HCC827; format: cell-based; conditions: Homo sapiens, 24 h
Method: as §6, §7

[10] = system: NCI-H1650 cells; assay: Cell death by PI staining / flow cytometry, NCI-H1650; format: cell-based, human; conditions: CompuSyn
Method: as §1, §2, §3, §4, §5

[11] = system: NCI-H1650 xenograft; assay: NCI-H1650 tumor xenograft in mice; format: in vivo, NOD-SCID mice; conditions: NA49 20 mg/kg IP every other day + Gef 5 mg/kg IP
Method: (§8) NCI-H460 single-cell suspension (1 × 10^6 cells) was injected subcutaneously into the hind legs of 6-week-old BALB/c nude mice (Orientbio, Korea). […] NCI-H1650 single-cell suspension (1 × 10^7 cells) was injected subcutaneously into the hind leg of 6-week-old NOD-SCID mice (Koatech, Korea). When tumors reached a minimal volume of 150 mm^3, xenograft mice were treated 7 times with J2 or NA49 by local regional application with or without gefitinib (5 mg/kg) by IP injection. For this, J2 or NA49 (20 mg/kg) was injected by IP every two days, and gefitinib was injected every three days. Tumor volumes were determined according to the formula (L × l^2)/2, by measuring tumor length (L) and width (l) with a caliper. Tumors were measured every other day and allowed to grow for 15 or 34 days. All procedures for animal experiments were in accordance with the guidelines by the Ewha Woman’s University Institutional Animal Care and Use Committee (IACUC, 18-006), Seoul, Korea.

[12] = system: PC9 cells; assay: MTT viability assay, PC9; format: cell-based; conditions: Homo sapiens, PC-9, 24 h
Method: as §6, §7

[13] = system: NCI-H460 xenograft; assay: NCI-H460 tumor xenograft in mice; format: in vivo, BALB/c nude mice; conditions: NA49 20 mg/kg IP every other day + cisplatin 2 mg/kg IP twice a week
Method: as §8

[14] = system: NCI-H1975 cells; assay: Cell death by PI staining / flow cytometry, NCI-H1975; format: cell-based, human; conditions: NA 10 µM + gefitinib 10 µM, CompuSyn
Method: as §1, §2, §3, §4, §5

[15] = system: A549 cells; assay: MTT viability assay, A549; format: cell-based; conditions: Homo sapiens, 24 h
[16] = system: HCC827 cells; assay: Cell death by PI staining / flow cytometry, HCC827; format: cell-based, human; conditions: NA 10 µM + gefitinib 0.01 µM, CompuSyn
Method: as §1, §2, §3, §4, §5

Row | Structure (SMILES) | IC50 [1] | In vitro Metabolic Stability (% of remaining after 30 min) [2] | CI value (combination index) ([3]; NA 10 µM + cisplatin 3 µM) | CI value (combination index) ([3]; NA 20 µM + cisplatin 3 µM) | IC50 [4] | CI value (combination index) ([5]; NA 10 µM + cisplatin 5 µM) | CI value (combination index) ([5]; NA 20 µM + cisplatin 5 µM) | IC50 [6] | IC50 [7] | CI value (combination index) [8] | IC50 [9] | CI value (combination index) ([10]; NA 10 µM + gefitinib 10 µM) | CI value (combination index) ([10]; NA 10 µM + gefitinib 20 µM) | Tumor growth, combination with NA49 compared to Gef alone [11] | IC50 [12] | Tumor growth, combination with NA49 compared to cisplatin alone [13] | CI value (combination index) [14] | IC50 [15] | CI value (combination index) [16]
1 | Cc1cc(=O)c2c(O)cc(OCC3CS3)cc2o1 (stereo not drawn) [J2] | > 100 µM | 6.2 ± 2.55% | – | – | – | – | – | – | – | – | – | – | – | – | – | – | – | – | –
2 | COc1ccc(-c2coc3cc(OCC4CS4)ccc3c2=O)c(OC)c1 (stereo not drawn) [NA49] | 90.4 µM | 2.4 ± 0.95% | 0.942 | 0.969 | 89.4 ± 2.57 µM | 0.698 | 0.823 | 38.1 ± 0.69 µM | 62.9 ± 1.58 µM | 1.84 | 64.4 ± 2.31 µM | 0.828 | 0.487 | greater reduction in tumor growth | 73 ± 2.66 µM | greater reduction in tumor growth | 0.392 | 62.5 ± 0.9 µM | 0.651
